Data: BindingDB's records for patent US9834551 (Arrien Pharmaceuticals, 2017)

Molecular target: T1, Tyrosine-protein kinase JAK3 (Homo sapiens, UniProt P52333)
T1 sequence (P52333 whole entry): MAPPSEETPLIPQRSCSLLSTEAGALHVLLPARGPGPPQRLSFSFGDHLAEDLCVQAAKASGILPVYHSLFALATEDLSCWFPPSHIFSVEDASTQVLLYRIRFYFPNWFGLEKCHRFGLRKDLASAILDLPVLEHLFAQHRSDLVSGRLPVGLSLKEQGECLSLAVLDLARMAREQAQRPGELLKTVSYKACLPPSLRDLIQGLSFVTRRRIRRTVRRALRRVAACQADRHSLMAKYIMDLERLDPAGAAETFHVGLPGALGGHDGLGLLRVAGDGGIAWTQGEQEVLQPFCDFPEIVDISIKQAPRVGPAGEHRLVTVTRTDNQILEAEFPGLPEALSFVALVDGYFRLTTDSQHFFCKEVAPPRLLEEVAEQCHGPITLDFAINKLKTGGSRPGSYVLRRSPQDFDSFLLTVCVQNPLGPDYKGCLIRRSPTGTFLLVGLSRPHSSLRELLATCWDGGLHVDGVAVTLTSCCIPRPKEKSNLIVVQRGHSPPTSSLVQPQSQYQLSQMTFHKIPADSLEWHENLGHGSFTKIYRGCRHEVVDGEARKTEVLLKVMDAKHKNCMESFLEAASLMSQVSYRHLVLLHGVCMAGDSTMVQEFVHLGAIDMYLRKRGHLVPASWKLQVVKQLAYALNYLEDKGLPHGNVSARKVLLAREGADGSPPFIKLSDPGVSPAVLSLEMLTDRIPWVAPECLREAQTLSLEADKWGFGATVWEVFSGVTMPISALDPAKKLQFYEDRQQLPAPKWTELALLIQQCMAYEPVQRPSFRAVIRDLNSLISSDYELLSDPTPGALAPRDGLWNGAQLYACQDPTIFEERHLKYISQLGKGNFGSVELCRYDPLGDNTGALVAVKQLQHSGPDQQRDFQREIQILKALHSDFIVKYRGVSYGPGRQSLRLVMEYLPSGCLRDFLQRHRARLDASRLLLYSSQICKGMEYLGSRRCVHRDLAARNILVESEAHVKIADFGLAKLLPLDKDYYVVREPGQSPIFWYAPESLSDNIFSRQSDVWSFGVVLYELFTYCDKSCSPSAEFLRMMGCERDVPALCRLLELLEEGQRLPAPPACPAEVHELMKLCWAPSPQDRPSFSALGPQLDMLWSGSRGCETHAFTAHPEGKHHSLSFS
Test: In Vitro Inhibition Assay
Protocol: All additions were done on ice, followed by the addition of ATP mix. Wells were uniformly mixed using an Eppendorff plate shaker and incubated at 30° C. for 20 min, and stopped by the addition of 5 μL of 3% phosphoric acid. Volume was increased to 100 μL by adding 0.8% phosphoric acid which was then transferred to PC filter mats (Millipore), pre-equilibrated with 70% ethanol and water. Plates were washed thrice with 100 μL 0.8% phosphoric acid and dried for an hour at 60° C. 100 μL scintillation fluid was added into each well and reading taken in Perkin Elmer TOPCOUNT beta counter.

Row | SMILES | IC50
1 | C=CC(=O)Nc1cccc(-c2cnc3[nH]cc(-c4cccc(S(=O)(=O)N(CC)CC)c4)c3c2)c1 [US9834551, Example 28] | < 100 nM
2 | C=CC(=O)Nc1cccc(-c2cnc3[nH]cc(-c4cccc(C)c4F)c3c2)c1 [US9834551, Example 148] | < 100 nM
